Reference: US5410068A, “Succinimidyl trityl compounds and a process for preparing same” (PerSeptive Biosystems, Inc., priority 1989, dated 1995)
{Biotin} = biotin attached to 5'-amino group

Tested on: streptavidin agarose
Assay: binding of biotin labeled oligonucleotides and amplified DNA to streptavidin agarose support
Settings: purified oligonucleotide
Method: The major component of each sample was isolated by the method described in Example 12.
Aliquots of the reaction mixture taken at 5 minutes, 55 minutes and 120 minutes were analyzed by reversed-phase HPLC. The analysis indicated complete disappearance of the major component of the crude mixture in favor of a more hydrophobic product within two hours.
Streptavidin agarose (Gibco BRL, Bethesda Md.) was treated before use. The agarose was washed three times with 200 μl of 150 mM NaCl, 10 mM NaH2 PO4 pH 7.2 containing 0.05% NaN3 and 10% acetonitrile. A 25 μl aliquot of 0.5M NaCl in 80% aqueous acetic acid containing 0.5% (w/v) aminoethanethiol hydrochloride was then washed through the resin and then 100 μl of this solution was allowed to react with the streptavidin agarose for 1 hr. The resin was again washed three times with 100 μl of 150 mM NaCl, 10 mM NaH2 PO4 pH 7.2 containing .05% NaN3 and 10% acetonitrile.
Following amplication, a portion of each PCR reaction (50 μl) was incubated with pretreated (see Example 16) streptavidin agarose (100 μl) for 30 minutes. At the end of the incubation, the supernatant was removed and the streptavidin agarose was washed twice with 100 μl of 150 mM NaCl, 10 mM NaH2 PO4 pH 7.2 containing 0.05% NaN3 and 10% acetonitrile (hereafter called streptavidin buffer).The washings were combined with the supernatant. […]

In the case of “new product: biotinylated 5'-amino group containing partially protected 15-mer 5'-TCCCAGTCACGACGT-3' (treated with 1,6-diaminohexane) (DNA, 5' {Biotin}, backbone and methylation of C not given here; biotin via aminohexyl, partially protected)”, the “binding to streptavidin agarose” value is reported as “shown to bind to streptavidin agarose”.
